In patent US5804576A, “Derivatives of 5-androsten-17-ones and 5-androstan-17-ones” (Research Corporation Technologies, Inc., priority 1986, dated 1998):
Read-outs that look alike come from different tables or passages of the source.

What was measured:
[1] = target: T1, purified bovine adrenal G6PDH (Bos taurus, UniProt F1MMK2); experiment: Inhibition of purified bovine adrenal G6PDH; assay type: biochemical; conditions: read-out: Percent Inhibition (G6PDH); for inhibition at 0.1 µM: Conc. 0.1 μm; for inhibition at 1 µM: Conc. 1 μm; for inhibition at 10 µM: Conc. 10 μm
T1 construct: full-length, wild type, no tag
Excerpt: The compounds listed below are screened as inhibitors of purified bovine adrenal G6PDH activity as one predictor of cancer preventive action. The assay for testing the inhibition of purified bovine adrenal G6PDH is according to the procedure by Oertel, G. W. and Rebelein, I. in Biochem. Biophys. Acta, 184, 459-460 (1969). The results are given below in Table I:
Both of the above tests, i.e., the inhibition of mammalian glucose-6-phosphate dehydrogenase (G6PDH) and the inhibition of tumor promoter (TPA) stimulation of ^3 H-thymidine incorporation in mouse epidermis are recognized as indicators of cancer prophylactic activity. The following Table compares the efficacy of representative compounds of the present invention in these two tests with that of DHEA: […]

[2] = system: TPA (Tumor Promoter) Stimulation of Mouse Epidermal DNA; experiment: Inhibition of TPA stimulation of mouse epidermal DNA synthesis (3H-thymidine incorporation), oral; assay type: in vivo, mouse (ICR male)
Excerpt: Synthesis rate by orally administered steroids.
The inhibition of tumor promoter stimulation of mouse epidermal DNA synthesis rate by steroids may also contribute to cancer preventive activity. The following assay is used:
(§1) ICR male mice (7-9 weeks old) were shaved on the back 1-2 days before use. Only mice showing no hair regrowth were used. Animals were orally intubated with a particular steroid suspended by homogenization in sesame oil or with sesame oil alone (controls). One hour later TPA (10 μg in 0.2 ml of acetone) or acetone vehicle was applied topically to the shaved skin. Twenty hours later, mice were injected i.p. with 60 μCi of ^3 H-thymidine 20 minutes before sacrifice. The animals were killed by cervical dislocation and the residual hair was removed with a depilatory agent. Epidermal scrapings were prepared according to the procedures of Hennings et al. (Cancer Res. 28, 53, 1968), homogenized in distilled water at 4° C., and the macromolecules precipitated with 0.4N trichloroacetic acid (TCA). Following 6 washes with absolute ethanol at room temperature, the nucleic acids were hydrolyzed with 0.5N TCA at 70° C. for 5 minutes. The hydrolysate (0.2 ml aliquots) were counted in an Intertechnique scintillation counter and assayed for DNA by the diphenylamine reaction.
(§2) The data are expressed as counts per minute (cpm) of tritium per μg of DNA.
A similar oral dose-response experiment with compound 16 and DHEA was performed.
Both of the above tests, i.e., the inhibition of mammalian glucose-6-phosphate dehydrogenase (G6PDH) and the inhibition of tumor promoter (TPA) stimulation of ^3 H-thymidine incorporation in mouse epidermis are recognized as indicators of cancer prophylactic activity. The following Table compares the efficacy of representative compounds of the present invention in these two tests with that of DHEA:
(§3) Male ICR mice were orally intubated with steroid suspended in sesame oil (0.5 ml/mouse) at the indicated dose. Mice not receiving steroid were given sesame oil alone. One hour later mice received topical application of TPA and 20 hours later the rate of ^3 H-thymidine incorporation into the epidermis was determined as described in Table 4.
as §3, with “TPA,” for “TPA”

[3] = system: TPA stimulation in DNA synthesis rate (mouse epidermis); experiment: Inhibition of TPA stimulation of mouse epidermal DNA synthesis, intraperitoneal; assay type: in vivo, mouse (ICR male); conditions: i.p. dose-response
Method: as §1, §2
Compound 2 or 3 in comparison with DHEA by Intraperitoneal Injection.
Steroids were suspended in sterile 95% saline--5% Emulphor and injected intraperitoneally. Otherwise conditions were the same as when steroids were orally administered.

[4] = Anti-obesity test (body weight, food consumption); assay type: in vivo, mouse (male A/J); conditions: n = 5
Method: Male A/J mice (5 weeks old) were obtained from the Jackson Laboratory and were housed in polycarbonate cages (5 mice/cage) in animal quarters maintained at 24°±1° C. with 12 hours of light and 12 hours of darkness each day. One week after arrival, the mice were placed on a chow diet containing varying concentrations of DHEA or other steroid. Animals were weighed weekly; food consumption was determined weekly by subtracting the amount of food remaining in the cage from the amount added.
Male A/J (5 weeks old) were obtained from the Jackson Laboratory and were housed in polycarbonate cages (5 mice/cage) in animal quarters maintained at 24°±1° C. with 12 hours of light and 12 hours of darkness each day. One week after arrival, the mice were placed on a diet containing either DHEA, 19, or without steroid. Animals were weighed weekly. The concentration of DHEA or 19 used in the food was 0.54%.
Male A/J mice (5 weeks old) were obtained from the Jackson Laboratory and were housed in polycarbonate cages (5 mice/cage) in animal quarters maintained at 24°±1° C. with 12 hours of light and 12 hours of darkness each day. One week after arrival, the mice were placed on a show diet containing DHEA, 16, or 21 at 0.36%. Animals were weighed weekly.

rat uterus = experiment: Uterotrophic test, subcutaneous (Compound 2 vs. DHEA); assay type: in vivo; conditions: for Mean Uterine Weight: n = 4 or 5
Method: Twenty-two day old rats were obtained from Charles River Laboratories. Animals were used at 29 days of age. Test steroids were suspended by homogenization in sesame oil. Rats were orally intubated at 1-2 P.M. for 3 days with a test steroid in sesame oil or with sesame oil alone (control). On the 4th day the animals were killed and the uteri were removed and weighed.
Compound 2 vs. DHEA. Compounds Administered by Subcutaneous Injection
Steroids were dissolved in 2 ml ethanol and brought up to 5 ml volume with propylene glycol. Concentrations were such that 1 μl/gm body weight delivered the indicated dose.

[5] = system: mammalian glucose-6-phosphate dehydrogenase (G6PDH); conditions: cited from earlier work
[6] = system: 3H-thymidine incorporation in mouse epidermis; conditions: in vivo; cited from earlier work
[7] = system: Epstein-Barr virus-induced transformation of human lymphocytes; conditions: cited from earlier work
mouse breast epithilum = conditions: in vivo; cited from earlier work

T1 sequence (F1MMK2 31-70): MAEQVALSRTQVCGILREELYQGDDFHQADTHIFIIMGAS
T1 sequence (F1MMK2 101-575): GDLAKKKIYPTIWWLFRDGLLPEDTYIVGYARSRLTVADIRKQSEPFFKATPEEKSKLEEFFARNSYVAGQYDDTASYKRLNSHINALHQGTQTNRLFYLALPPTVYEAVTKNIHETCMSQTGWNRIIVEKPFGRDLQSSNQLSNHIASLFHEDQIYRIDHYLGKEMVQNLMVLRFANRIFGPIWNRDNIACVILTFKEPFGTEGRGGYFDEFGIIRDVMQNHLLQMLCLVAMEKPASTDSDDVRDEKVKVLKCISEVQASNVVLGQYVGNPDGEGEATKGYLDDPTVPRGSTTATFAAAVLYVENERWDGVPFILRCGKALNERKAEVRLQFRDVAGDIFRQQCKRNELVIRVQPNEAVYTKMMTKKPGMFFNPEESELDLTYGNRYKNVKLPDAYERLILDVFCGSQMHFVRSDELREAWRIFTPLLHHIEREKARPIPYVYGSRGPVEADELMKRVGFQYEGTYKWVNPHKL

Row | Structure (SMILES) | inhibition at 0.1 µM [1] [%] | inhibition at 1 µM [1] [%] | inhibition at 10 µM [1] [%] | blocking the TPA stimulation in DNA synthesis rate, compared with DHEA (in words) [3] | mean weekly weight ([4]; 0.35% of diet, week 0) [grams] | mean weekly weight ([4]; 0.35% of diet, week 1) [grams] | mean weekly weight ([4]; 0.35% of diet, week 2) [grams] | mean weekly weight ([4]; 0.35% of diet, week 3) [grams] | mean weekly weight ([4]; 0.35% of diet, week 4) [grams] | mean weekly weight ([4]; 0.35% of diet, week 5) [grams] | mean weekly weight ([4]; 0.7% of diet, week 0) [grams] | mean weekly weight ([4]; 0.7% of diet, week 1) [grams] | mean weekly weight ([4]; 0.7% of diet, week 2) [grams] | mean weekly weight ([4]; 0.7% of diet, week 3) [grams] | mean weekly weight ([4]; 0.7% of diet, week 4) [grams] | mean weekly weight ([4]; 0.7% of diet, week 5) [grams] | also measured
1 | C[C@]12CC[C@H](O)C[C@@H]1CC[C@@H]1[C@@H]2CC[C@]2(C)C(=O)CC[C@@H]12 [Compound 2] | 36 | 64 | 82 | about as active as DHEA | 21.8 ± 1.6 | 21.8 ± 1.3 | 22.0 ± 1.2 | 22.8 ± 1.3 | 24.2 ± 1.1 | 24.4 ± 1.7 | 21.3 ± 1.8 | 20.6 ± 2.3 | 20.6 ± 0.5 | 20.8 ± 0.8 | 22.6 ± 0.6 | 22.4 ± 0.5 | blocking the TPA stimulation in DNA synthesis rate (in words) ([2]; 200 mg/kg or 100 mg/kg oral): not active at 200 mg/kg or 100 mg/kg; mean weekly weight ([4]; 0.35% of diet, week 6): 24.8 ± 1.5 grams; mean weekly weight ([4]; 0.35% of diet, week 7): 25.4 ± 1.7 grams; mean weekly weight ([4]; 0.7% of diet, week 6): 23.5 ± 0.9 grams; mean weekly weight ([4]; 0.7% of diet, week 7): 23.8 ± 0.8 grams; Mean Uterine Weight (rat uterus; 10 mg/kg s.c.): 151 ± 32 Mgs; Mean Uterine Weight (rat uterus; 60 mg/kg s.c.): 127 ± 32 Mgs; estrogenic activity (in words) (rat uterus; rat uterotrophic test, s.c.): Neither compounds 16 nor 2 are estrogenic
2 | C[C@]12CC[C@H](O)C[C@@H]1CC[C@@H]1[C@@H]2CC[C@]2(C)C(=O)[C@H](Br)C[C@@H]12 [16α-bromo-epiandrosterone, 3β-hydroxy-16α-bromo-5α-androstan-17-one] | – | – | – | – | – | – | – | – | – | – | – | – | – | – | – | – | inhibition of mammalian G6PDH (in words) [5]: more potent inhibitor of mammalian G6PDH than DHEA; inhibition of mammalian G6PDH (in words) ([5]; listed as 16α-Br-epiandrosterone): more active than DHEA in inhibiting G6PDH; 3H-thymidine incorporation in mouse epidermis (in words) [6]: more active than DHEA; inhibition of Epstein-Barr virus-induced transformation (in words) [7]: inhibitors of Epstein-Barr virus-induced transformation of human lymphocytes; rate of [3H] thymidine incorporation into breast epithelium (in words) (mouse breast epithilum): more active than DHEA
3 | C[C@]12CCCC[C@@H]1CC[C@@H]1[C@@H]2CC[C@]2(C)C(=O)CC[C@@H]12 [Compound 3] | 10 | 69 | 80 | more active in blocking the TPA stimulation in DNA synthesis rate | 21.8 ± 2.2 | 22.6 ± 1.8 | 23.6 ± 1.8 | 24.8 ± 1.8 | 24.6 ± 1.8 | 24.8 ± 1.9 | 21.6 ± 2.6 | 20.0 ± 1.9 | 21.3 ± 1.8 | 21.8 ± 1.6 | 22.0 ± 1.6 | 21.4 ± 1.1 | activity compared with DHEA, TPA stimulation (in words) ([2]; 200 mg/kg oral): somewhat more active than DHEA
